For the series the following is noted: human, in vivo. The method, then:
The applicability of obesity-related phenotypes as actionable biomarkers was tested in three pilot, proof of concept studies (see, e.g., Acosta et al., 2015 Gastroenterology 148:537-546; Acosta et al., 2015 Physiol Rep 3; and Halawi et al., 2017 Lancet Gastroenterol Hepatol 2:890-899). First, in a single-center, randomized, parallel-group, double-blind, placebo-controlled, 14-day study, the effects of Phentermine-topiramate-ER (PhenTop) (7.5/46 mg, orally, daily) on gastric emptying (GE) and volume, satiation, satiety, and fasting and postprandial GI hormones was evaluated in 24 obese adults. […] Subsequently, in a prospective, NIH-funded, randomized, placebo controlled clinical trial to study the effects of liraglutide 3 mg, SQ, over 16 weeks on obesity phenotypes and weight in 40 obese patients. […]
A prospective, randomized clinical trial with liraglutide, a long-acting GLP-1 receptor agonist, was completed. […] At baseline and after 16 weeks' treatment, weight, gastric emptying of solids (GES, primary endpoint), large fasting gastric volumes, satiation, and satiety were measured. GES was also measured at 5 weeks. […] Effect of liraglutide on GES T1/2 at 5 and 16 weeks in the liraglutide group was analyzed by paired t-test. Seventeen participants were analyzed in the liraglutide group (n=19 randomized) and 18 in the placebo group (n=21 randomized).

Here are results for 1 molecule from patent US12474353B2, “Methods and materials for assessing and treating obesity” (Mayo Foundation for Medical Education and Research, priority 2017, dated 2025).

Consider `CCCCCCCCCCCCCCCC(=O)N[C@@H](CCC(=O)NCCCC[C@H](NC(=O)[C@H](C)NC(=O)[C@H](C)NC(=O)[C@H](CCC(N)=O)NC(=O)CNC(=O)[C@H](CCC(=O)O)NC(=O)[C@H](CC(C)C)NC(=O)[C@H](Cc1ccc(O)cc1)NC(=O)[C@H](CO)NC(=O)[C@H](CO)NC(=O)[C@@H](NC(=O)[C@H](CC(=O)O)NC(=O)[C@H](CO)NC(=O)[C@@H](NC(=O)[C@H](Cc1ccccc1)NC(=O)[C@@H](NC(=O)CNC(=O)[C@H](CCC(=O)O)NC(=O)[C@H](C)NC(=O)[C@@H](N)Cc1cnc[nH]1)[C@@H](C)O)[C@@H](C)O)C(C)C)C(=O)N[C@@H](CCC(=O)O)C(=O)N[C@@H](Cc1ccccc1)C(=O)N[C@H](C(=O)N[C@@H](C)C(=O)N[C@@H](Cc1c[nH]c2ccccc12)C(=O)N[C@@H](CC(C)C)C(=O)N[C@H](C(=O)N[C@@H](CCCNC(=N)N)C(=O)NCC(=O)N[C@@H](CCCNC(=N)N)C(=O)NCC(=O)O)C(C)C)[C@@H](C)CC)C(=O)O` [liraglutide], for which the “Nausea (most common adverse event)” value is given as 63.2%.
